Results on 24 compounds are retold here after patent publication US20210139435A1, “PROSTAGLANDIN ANALOGS AND USES THEREOF” (Lifex Biolabs, Inc., priority 2019, published 2021).

The target of the experiment is T1, mouse Nurr1 full-length (Mus musculus, UniProt Q06219).
T1 construct: pcDNA3.1 Myc/His mouse Nurr1 full-length construct; expressed in transfected cells; host or cells: SK-N-BE2C
Nature of the experiment: Luciferase reporter gene assay for Nurr1 transcriptional activity in SK-N-BE2C cells. It counts as cell-based. Conditions: relative activity over control (luminescence value; 1.0). As for the experimental part: To investigate whether the PG analogs of the present invention activate Nurr1 function, the inventors of the present invention employed an reporter gene assay and examined the transcriptional activation as described in Kim, C.-H. et al., Proceedings of the National Academy of Sciences 112, 8756-8761, doi:10.1073/pnas.1509742112 (2015).
The gene assay was performed by Luciferase assay as described below:
[Protocol for Luciferase Assay to Determine Nurr1 Transcriptional Activity] • 1. SK-N-BE2C cells were maintained in HyClone™ DMEM High Glucose (Cat. No.: SH30022.01) with 10% (v/v) fetal bovine serum (FBS), 100 units/ml penicillin and 100 μg/ml streptomycin. • 2. Seed 1.5×10^5 SK-N-BE2C cells/well into a 24-well plate and incubate at 37° C. with 5% CO2 for 24 hours. • 3. After 24 hours, transfect cells with pcDNA3.1 Myc/His mouse Nurr1 full-length construct, firefly luciferase reporter vector (pGL-3 basic from Promega, Cat. No.:E1751; with appropriate response element cloned in) and Renilla luciferase control vector (pRL-null from Promega, Cat. No.:E2271) in the ratio of 8:1:1 (Nurr1: firefly: renilla) or 400 ng, 50 ng and 50 ng respectively, amounting to a total of 500 ng in the 50 μl transfection mix for 1 well. • 4. To make the transfection mix, first prepare the DNA with P3000 reagent by adding the appropriate amount of DNA with 1 μl P3000 reagent and top up with Opti-MEM® I Reduced-Serum Media (from ThermoFisher Scientific [Cat. No.: 31985070]) to 25 μl. Incubate for 5 minutes at room temperature. • 5. Make another mix consisting of 1 μl Lipofectamine 3000 reagent with 24 μl Opti-MEM® I Reduced-Serum Media per well. Add this Lipofectamine mix to the previous DNA-P3000 mix (after the previous 5 minute incubation) and incubate them for 15 minutes at room temperature. [P3000:Lipofectamine=1:1]. • 6. In the meantime, change the media in the sample wells with fresh DMEM media without antibiotics. • 7. After 15 minutes incubation, add the 50 μl transfection mix into each well and incubate the plate for 24 hours at 37° C. with 5% CO2. • 8. After 24 hours, change the media to normal DMEM media with antibiotics and add various doses of compounds into designated wells and incubate the plate for another 24 hours at 37° C. with 5% CO2. • 9. Following the 24-hour incubation period, luciferase assay can be conducted using Dual-Glo Luciferase® kit from Promega (Cat. No.: E2920). • 10. Lyse each tested wells for 15 minutes with 75 μl of passive lysis buffer provided in the Dual-Luciferase® kit from Promega (Cat. No.: E1910). [Alternatively, add 75 μl of PBS and 75 μl of Dual-Glo® Luciferase Reagent and incubate for 10 minutes at room temperature (cover the plate with foil to protect from light). Transfer the entire sample in each well to a Greiner CELLSTAR® 96-well white polystyrene plate then proceed to step 13]. • 11. After 15 minutes, transfer each lysed sample to a Greiner CELLSTAR® 96-well white polystyrene plate (Cat. No.:655083). • 12. To each well of lysed cells, add 75 μl of Dual-Glo® Luciferase Reagent and incubate for 10 minutes at room temperature (cover the plate with foil to protect from light). • 13. Set the measurement with a 10-second integrated measurement period. • 14. Add 75 μl of Dual-Glo® Stop & Glo® reagent into each well and incubate for 10 minutes before commencing with the same parameters as before to determine the RLU for the Renilla luciferase. • 15. The averaged reading for wells corresponding to non-transfected cells can be subtracted from each RLU reading and duplicate/triplicate readings can then be averaged. Normalization of the luminescence reading for each well can be carried out by dividing the firefly luciferase RLU with the corresponding Renilla luciferase RLU. Each drug-treated well can then be normalized against the averaged DMSO-treated well reading.
On the technique in general: A reporter such as luciferase makes a cellular process visible.

T1 sequence (Q06219 whole entry): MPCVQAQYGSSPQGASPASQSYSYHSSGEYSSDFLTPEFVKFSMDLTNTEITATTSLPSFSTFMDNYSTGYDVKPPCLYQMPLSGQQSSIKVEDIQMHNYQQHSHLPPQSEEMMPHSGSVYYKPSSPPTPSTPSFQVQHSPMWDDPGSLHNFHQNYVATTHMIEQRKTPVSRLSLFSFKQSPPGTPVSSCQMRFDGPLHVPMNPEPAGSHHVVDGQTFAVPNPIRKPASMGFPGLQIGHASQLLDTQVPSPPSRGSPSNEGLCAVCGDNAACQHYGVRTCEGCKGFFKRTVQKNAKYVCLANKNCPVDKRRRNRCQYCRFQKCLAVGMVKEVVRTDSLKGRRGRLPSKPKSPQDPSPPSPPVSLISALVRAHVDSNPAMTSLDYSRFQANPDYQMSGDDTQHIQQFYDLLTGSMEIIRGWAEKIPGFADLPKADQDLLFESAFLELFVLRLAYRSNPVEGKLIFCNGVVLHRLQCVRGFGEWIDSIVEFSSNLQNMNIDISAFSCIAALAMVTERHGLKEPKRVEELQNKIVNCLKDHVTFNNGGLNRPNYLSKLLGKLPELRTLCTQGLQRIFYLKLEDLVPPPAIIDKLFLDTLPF

For `CCCCC(C)(O)C/C=C/[C@H]1[C@H](O)CC(=O)[C@@H]1CCCCCCC(=O)O` (mixture of isomers) [Compound 94, Misoprostol acid], the “Fold activity (1 uM)” value was “B (1.1~2.0 (moderate))”.
The entry for `CCCCC[C@H](O)/C=C/[C@H]1[C@H](O)CC(=O)[C@@H]1C/C=C/CCCC(=O)O` (relative stereo) [Compound 60, 5-trans Prostaglandin E2] is “B (1.1~2.0 (moderate))”; for `CC/C=C/C[C@H](O)/C=C/[C@H]1[C@H](O)CC(=O)[C@@H]1C/C=C\CCCC(=O)O` (relative stereo) [Compound 78, 17-trans Prostaglandin E3] it is “A (above 2.0 (high activity))”.
In the case of `CCCCC[C@H](O)/C=C/[C@H]1[C@H](O)CC(=O)[C@@H]1CCCCCCC(=O)Oc1ccc(NC(=O)c2ccccc2)cc1` [Compound 1, 4-Benzamidophenyl-7-((1R,2R,3R)-3-hydroxy-2-((S,E)-3-hydroxyoct-1-enyl)-5-oxocyclopentyl)heptanoate], the “Fold activity (1 uM)” value is reported as “A (above 2.0 (high activity))”.
On to `CCCCC(C)(O)C/C=C/[C@H]1[C@H](O)CC(=O)[C@@H]1CCCCCCC(=O)Oc1ccc(NC(=O)c2ccccc2)cc1` (stereo partly drawn) [Compound 2, 4-Benzamidophenyl-7-((1R,2R,3R)-3-hydroxy-2-((E)-4-hydroxy-4-methyloct-1-en-1-yl)-5-oxocyclopentyl)heptanoate], for which the “Fold activity (1 uM)” value is on record as “A (above 2.0 (high activity))”.
For `CCCCC[C@H](O)/C=C/[C@H]1[C@H](O)CC(=O)[C@@H]1CCCCCCC(=O)Nc1ccc(NC(=O)c2ccccc2)cc1` [Compound 3, N-(4-(7-((1R,2R,3R)-3-hydroxy-2-((S,E)-3-hydroxyoct-1-en-1-yl)-5-oxocyclopentyl)heptanamido)phenyl)benzamide], the “Fold activity (1 uM)” value is “B (1.1~2.0 (moderate))”.
The entry for `CCCCC[C@H](O)/C=C/[C@H]1[C@H](O)CC(=O)[C@@H]1CCCCCCC(=O)Nc1ccccc1` [Compound 4, 7-((1R,2R,3R)-3-hydroxy-2-((S,E)-3-hydroxyoct-1-enyl)-5-oxocyclopentyl)-N-phenylheptanamide] is “A (above 2.0 (high activity))”.
The value for `CCCCC[C@H](O)/C=C/[C@H]1[C@H](O)CC(=O)[C@@H]1CCCCCCC(=O)Nc1ccc(Cl)cc1` [Compound 5, N-(4-chlorophenyl)-7-((1R,2R,3R)-3-hydroxy-2-((S,E)-3-hydroxyoct-1-enyl)-5-oxocyclopentyl)heptanamide] was “A (above 2.0 (high activity))”; that for `CCCCC[C@H](O)/C=C/[C@H]1[C@H](O)CC(=O)[C@@H]1CCCCCCC(=O)Nc1cccc(C(=O)Nc2ccccc2)c1` [Compound 6, 3-(7-((1R,2R,3R)-3-hydroxy-2-((S,E)-3-hydroxyoct-1-enyl)-5-oxocyclopentyl)heptanamido)-N-phenylbenzamide] was “B (1.1~2.0 (moderate))”; that for `CCCCC[C@H](O)/C=C/[C@H]1[C@H](O)CC(=O)[C@@H]1CCCCCCC(=O)Nc1ccc2nccnc2c1` [Compound 7, 7-((1R,2R,3R)-3-hydroxy-2-((S,E)-3-hydroxyoct-1-enyl)-5-oxocyclopentyl)-N-(quinoxalin-6-yl)heptanamide] was “A (above 2.0 (high activity))”.
As to `CCCCC[C@H](O)/C=C/[C@H]1[C@H](O)CC(=O)[C@@H]1CCCCCCC(=O)Nc1ccc2cccnc2c1` [Compound 8, 7-((1R,2R,3R)-3-hydroxy-2-((S,E)-3-hydroxyoct-1-enyl)-5-oxocyclopentyl)-N-(quinolin-7-yl)heptanamide], the “Fold activity (1 uM)” value is on record as “A (above 2.0 (high activity))”.
The value for `CCCCC[C@H](O)/C=C/[C@H]1[C@H](O)CC(=O)[C@@H]1CCCCCCC(=O)NOc1ccccc1` [Compound 9, 7-((1R,2R,3R)-3-hydroxy-2-((S,E)-3-hydroxyoct-1-enyl)-5-oxocyclopentyl)-N-phenoxyheptanamide] was “A (above 2.0 (high activity))”; that for `CCCCC(C)(O)C/C=C/[C@H]1[C@H](O)CC(=O)[C@@H]1CCCCCCC(=O)NOc1ccccc1` (stereo partly drawn) [Compound 10, 7-((1R,2R,3R)-3-hydroxy-2-((E)-4-hydroxy-4-methyloct-1-enyl)-5-oxocyclopentyl)-N-phenoxyheptanamide] was “A (above 2.0 (high activity))”; that for `CCCCCC(O)/C=C/[C@H]1[C@H](O)CC(=O)[C@@H]1CCCCCCC(=O)Oc1ccc(NC(=O)c2ccc(F)cc2)cc1` (stereo partly drawn) [Compound 11, 4-(4-fluorobenzamido)phenyl 7-((1R,2R,3R)-3-hydroxy-2-((E)-3-hydroxyoct-1-enyl)-5-oxocyclopentyl)heptanoate] was “A (above 2.0 (high activity))”.
The entry for `CCCCC[C@H](O)/C=C/[C@H]1[C@H](O)CC(=O)[C@@H]1CCCCCCC(=O)Oc1ccc(NC(=O)c2ccc(F)c(F)c2)cc1` [Compound 12, 4-(3,4-difluorobenzamido)phenyl 7-((1R,2R,3R)-3-hydroxy-2-((S,E)-3-hydroxyoct-1-enyl)-5-oxocyclopentyl)heptanoate] is “A (above 2.0 (high activity))”.
On to `CCCCC[C@H](O)/C=C/[C@H]1[C@H](O)CC(=O)[C@@H]1CCCCCCC(=O)Oc1ccc(NC(=O)c2cc(F)cc(F)c2)cc1` [Compound 13, 4-(3,5-difluorobenzamido)phenyl 7-((1R,2R,3R)-3-hydroxy-2-((S,E)-3-hydroxyoct-1-enyl)-5-oxocyclopentyl)heptanoate], for which the “Fold activity (1 uM)” value is listed as “A (above 2.0 (high activity))”.
The entry for `CCCCC[C@H](O)/C=C/[C@H]1[C@H](O)CC(=O)[C@@H]1CCCCCCC(=O)Oc1cc(OC)c(OC)c(OC)c1` [Compound 14, 3,4,5-trimethoxyphenyl 7-((1R,2R,3R)-3-hydroxy-2-((S,E)-3-hydroxyoct-1-enyl)-5-oxocyclopentyl)heptanoate] is “A (above 2.0 (high activity))”; for `CCCCC[C@H](O)/C=C/[C@H]1[C@H](O)CC(=O)[C@@H]1CCCCCCC(=O)OCc1ccccc1` [Compound 15, benzyl 7-((1R,2R,3R)-3-hydroxy-2-((S,E)-3-hydroxyoct-1-enyl)-5-oxocyclopentyl)heptanoate] it is “A (above 2.0 (high activity))”.
The value for `CCCCC[C@@H](O)/C=C/[C@H]1C(=O)C[C@H](O)[C@@H]1C/C=C\CCCC(=O)O` [Compound 16, 15(R)-Prostaglandin D2] was “A (above 2.0 (high activity))”.
The value for `CCCCCC(O)/C=C/C1C(=O)CC(O)C1C/C=C\CCCC(=O)OCC(O)CO` (stereo not drawn) [Compound 17, Prostaglandin D2-1-glyceryl ester] was “B (1.1~2.0 (moderate))”; that for `CCCCC[C@H](O)/C=C/[C@H]1[C@H](O)CC(=O)[C@@H]1CCCCCCC(=O)NCCO` [Compound 18, Prostaglandin E1 Ethanolamide] was “A (above 2.0 (high activity))”; that for `CCCCCC(=O)/C=C/[C@H]1[C@H](O)CC(=O)[C@@H]1CCCCCCC(=O)O` [Compound 19, 15-keto Prostaglandin E1] was “B (1.1~2.0 (moderate))”.
In the case of `CCCCC[C@H](O)/C=C/[C@H]1[C@H](O)CC(=O)[C@@H]1C/C=C\CCCC(=O)O` [Compound 20, Prostaglandin E2], the “Fold activity (1 uM)” value is “A (above 2.0 (high activity))”.
The value for `CCCCC[C@H](O)/C=C/[C@H]1[C@@H](O)CC(=O)[C@@H]1C/C=C\CCCC(=O)O` [Compound 21, 11b-Prostaglandin E2] was “B (1.1~2.0 (moderate))”.
